Converted amounts (≈) assume the structure as drawn.
Assays:
Cytomegalovirus [1] = experiment: Tested for antiviral activity against HCMV (AD169); type: functional, organism-based, Human betaherpesvirus 5
Human alphaherpesvirus 2 = experiment: Tested for antiviral activity against HSV-2 (G); type: functional, organism-based
Human alphaherpesvirus 1 [2] = experiment: Tested for antiviral activity against HSV-1 (TK-KOS); type: functional, organism-based
Cytomegalovirus [3] = experiment: Effective concentration required against HCMV AD169 for antiviral activity; type: functional, organism-based, Human betaherpesvirus 5
Human alphaherpesvirus 1 [4] = experiment: Tested for antiviral activity against HSV-1 (KOS); type: functional, organism-based
Hepatitis B virus = experiment: Tested for antiviral activity against HBV (Hep AD79); type: functional, organism-based
Cytomegalovirus [5] = experiment: Effective concentration required against HCMV strain for antiviral activity; type: functional, organism-based; conditions: Human betaherpesvirus 5
Human alphaherpesvirus 3 [6] = experiment: Tested for antiviral activity against VZV (YS); type: functional, organism-based
Human alphaherpesvirus 3 [7] = experiment: Tested for antiviral activity against VZV ([…]); type: functional, organism-based
[8] = Human alphaherpesvirus 2, read-out: IC50
[9] = Human alphaherpesvirus 1, read-out: IC50
[10] = Human betaherpesvirus 5, read-out: EC50
[11] = Hepatitis B virus, read-out: IC50

IC50 (Cytomegalovirus [1]; Human betaherpesvirus 5, read-out: IC50) [µg/mL]	IC50 (Human alphaherpesvirus 2; [8]) [µg/mL]	IC50 (Human alphaherpesvirus 1 [2]; [9]) [µg/mL]	EC50 (Cytomegalovirus [3]; [10]) [µg/mL]	IC50 (Human alphaherpesvirus 1 [4]; [9]) [µg/mL]	IC50 (Hepatitis B virus; [11]) [µg/mL]	EC50 (Cytomegalovirus [5]) [µg/mL]	IC50 (Cytomegalovirus [1]) [µg/mL]	IC50 (Human alphaherpesvirus 2) [µg/mL]	IC50 (Human alphaherpesvirus 1 [2]) [µg/mL]	IC50 (Human alphaherpesvirus 3 [6]) [µg/mL]	EC50 (Cytomegalovirus [3]) [µg/mL]	IC50 (Human alphaherpesvirus 1 [4]) [µg/mL]	IC50 (Human alphaherpesvirus 3 [7]) [µg/mL]	IC50 (Hepatitis B virus) [µg/mL]	Compound
0.6 (≈ 2.35 µM)	0.002 (≈ 0.00784 µM)	0.48 (≈ 1.88 µM)	0.77 (≈ 3.02 µM)	0.001 (≈ 0.00392 µM)	45 (≈ 176 µM)	–	–	–	–	–	–	–	–	–	Nc1nc2c(ncn2COC(CO)CO)c(=O)[nH]1 [GANCICLOVIR]
–	0.02 (≈ 0.0888 µM)	9.6 (≈ 42.6 µM)	16 (≈ 71 µM)	0.01 (≈ 0.0444 µM)	> 50	16 (≈ 71 µM)	–	–	–	–	–	–	–	–	Nc1nc2c(ncn2COCCO)c(=O)[nH]1 [ACYCLOVIR]
–	–	–	–	–	–	–	0.6 (≈ 2.16 µM)	0.05 (≈ 0.18 µM)	0.38 (≈ 1.37 µM)	0.49 (≈ 1.77 µM)	0.47 (≈ 1.7 µM)	0.002 (≈ 0.00721 µM)	2.1 (≈ 7.57 µM)	3 (≈ 10.8 µM)	Nc1nc(O)c2ncn(C3C=CC(CO)C(O)C3)c2n1 (stereo in doubt; form 1)
–	0.07 (≈ 0.252 µM)	–	–	0.003 (≈ 0.0108 µM)	3 (≈ 10.8 µM)	–	1.5 (≈ 5.41 µM)	–	1.28 (≈ 4.62 µM)	1.2 (≈ 4.33 µM)	1.05 (≈ 3.79 µM)	–	5.8 (≈ 20.9 µM)	–	Nc1nc(O)c2ncn(C3C=CC(CO)C(O)C3)c2n1 (stereo in doubt; form 2)
